Experimental data: patent publication US9029639B2, “Pyridazine compounds for controlling invertebrate pests” (BASF SE, priority 2009, dated 2015)

System: Cowpea aphid (Aphis craccivora)
Assay: Activity against cowpea aphid (Aphis craccivora), spray on potted cowpea plants
Type: in vivo
Details: population reduction assessed after 24, 72 and 120 hours, read-out: mortality in comparison with untreated controls
Method: II.3 Activity Against Cowpea Aphid (Aphis craccivora)
The active compounds were formulated in 50:50 (vol:vol) acetone:water. The test solution was prepared at the day of use.
Potted cowpea plants colonized with 100-150 aphids of various stages were sprayed after the pest population had been recorded. Population reduction was assesed after 24, 72, and 120 hours.

## Cc1nc(C(=O)N(C)c2ccnnc2)cs1 [Compound 5, 2-Methyl-thiazole-4-carboxylic acid methyl-pyridazin-4-yl-amide]
  mortality at 300 ppm: ≥ 90%
